The values that follow come from publication PMC6214108, “Synthesis and In Vitro Antitumor Activity of Novel Bivalent β-Carboline-3-carboxylic Acid Derivatives with DNA as a Potential Target” (International Journal of Molecular Sciences, 2018).

Experiment [1] has as its system calf thymus DNA (CT DNA). The experiment is described as follows: UV-visible spectral study with CT DNA. Type of experiment: binding. To be noted: 10 μM compound, 200 nM CT DNA additions. The protocol: UV-visible spectroscopy was carried out to determine the binding mode of β-carboline derivatives to DNA (CT DNA) using UV-2500 spectrophotometer (Shimadzu, Kyoto, Japan) at 25 °C. Stock solutions of 10 mM β-carboline derivatives were dissolved in DMSO, and 10 μM CT DNA was prepared in 100 mM KBPES buffer (30 mM Potassium Phosphate with 100 mM KCl, pH 7.0). UV-visible absorption titrations were performed by adding 200 nM CT DNA solution to the quartz cuvette containing approximately 10 μM derivative solutions. UV-Visible absorption spectra were recorded from 200 nm to 350 nm.
Figure 5 UV-visible spectroscopy study of β-carbolines with calf thymus (CT) DNA. UV-visible absorption titrations were done by adding 200 nM CT DNA solution each time to the quartz cuvette containing 10 μM 4B, 6i, 4D, and 6u. The absorption spectra were recorded from 200 nm to 350 nm.

For experiment [2], the system named is bcl-2 protein. Description: Western blot of bcl-2 protein. To be noted: A549, 2, 4, and 8 μM, 48 h. Type of experiment: cell-based. The protocol: (§1) The level of cytochrome C (Cyt C) in mitochondria, and the expression of bcl-2 protein, were evaluated by western blot. A549 cells (1 × 10^6 cells per well) seeded into 6-well plates (JET, Guangzhou, China) were incubated with DMEM containing various concentrations (2, 4, and 8 μM) of β-carbolines (6i and 6u) for 48 h at 37 °C and 5% CO2. Then, the cells were lysed with RIPA lysis buffer for 30 min on ice (containing 1% PMSF), centrifuged at 12,000× g for 5 min at 4 °C, and then the supernatants were transferred to 1.5 mL EP tubes. Proteins were separated by sodium dodecyl sulfate-polyacrylamide gel electrophoresis (SDS-PAGE) and blotted on polyvinylidene difluoride (PVDF) membranes (Millipore, Burlington, MA, USA), as previously described. The membranes were blocked for 2 h at r.t. with 5% non-fat milk in TBST buffer (20 mM Tris-HCl,150 mM NaCl and 0.05% Tween-20, pH7.4), and then incubated with the mouse anti-bcl-2 monoclonal antibody (Sigma, Saint Louis, MO, USA), anti-cytochrome C monoclonal antibody (Beyotime, Haimen, China), and anti-β-actin antibody (1:4000 dilution; Abcam, Cambridge, MA, USA) overnight at 4 °C, and finally incubated with the peroxidase conjugated goat anti-mouse IgG (Jackson ImmunoResearch Laboratories, West Grove, PA, USA) at 37 °C for 1 h. […]
(In general: A western blot detects proteins with antibodies after separation by electrophoresis.)

Experiment [3] has as its system cytochrome C (Cyt C) in mitochondria. The experiment is described as follows: Western blot of cytochrome C in mitochondria. To be noted: A549, 2, 4, and 8 μM, 48 h. Type of experiment: cell-based. The protocol: as §1

`COC(=O)c1cc2c3ccccc3n(Cc3ccccc3F)c2cn1` [Compound 4D]: in experiment [1], the “Intercalation ability (UV-visible spectra with CT DNA)” value is listed as “very weak”. Take `Cc1ccccc1Cn1c2ccccc2c2cc(C(=O)OCCCCCOC(=O)c3cc4c5ccccc5n(Cc5ccccc5C)c4cn3)ncc21` [Compound 6i]: the “Expression of bcl-2 protein, western blot” value in experiment [2] is “decreased in a dose-dependent manner”. In experiment [3], the “Level of Cyt C (in mitochondria), western blot” value was “decreased in a dose-dependent manner”. For `O=C(OCCCCCOC(=O)c1cc2c3ccccc3n(Cc3ccccc3F)c2cn1)c1cc2c3ccccc3n(Cc3ccccc3F)c2cn1` [Compound 6u], the “Expression of bcl-2 protein, western blot” value in experiment [2] is reported as “decreased in a dose-dependent manner”. Moreover, the “Level of Cyt C (in mitochondria), western blot” value in experiment [3] is listed as “decreased in a dose-dependent manner”.
